For assay [1], the target named is Kappa-type opioid receptor (Cavia porcellus, UniProt P41144). Briefly: Binding affinity was determined towards opioid receptor kappa 1 using [3H]U-69593 as radioligand.
Assay [2] deals with T1, Mu-type opioid receptor (Cavia porcellus, UniProt P97266). Briefly: Binding affinity was determined towards opioid receptor mu1 using [3H]DAMGO as radioligand.
The nature of assay [3]: Binding affinity was determined towards Opioid receptor delta 1 using [3H]naltrindole as radioligand.
The target in assay [4] is T1, Mu-type opioid receptor. As to the kind of experiment: Binding affinity towards Opioid receptor mu 1 using [3H]DAMGO as radioligand.

Sequence of Kappa-type opioid receptor (P41144 whole entry): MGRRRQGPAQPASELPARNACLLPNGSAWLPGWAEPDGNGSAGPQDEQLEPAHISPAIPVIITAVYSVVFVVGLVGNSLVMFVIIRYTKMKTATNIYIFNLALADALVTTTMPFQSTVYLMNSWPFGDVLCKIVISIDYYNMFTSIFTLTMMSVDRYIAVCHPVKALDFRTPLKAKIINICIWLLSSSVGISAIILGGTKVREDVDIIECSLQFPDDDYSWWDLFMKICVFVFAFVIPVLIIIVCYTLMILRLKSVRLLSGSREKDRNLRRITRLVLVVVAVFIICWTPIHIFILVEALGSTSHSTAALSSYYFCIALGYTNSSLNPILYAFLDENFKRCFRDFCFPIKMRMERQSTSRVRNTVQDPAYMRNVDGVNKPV
T1 sequence (P97266 whole entry): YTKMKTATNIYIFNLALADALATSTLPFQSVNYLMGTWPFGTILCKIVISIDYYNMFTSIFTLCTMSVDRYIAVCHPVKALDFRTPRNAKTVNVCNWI

As to `C[C@H]1C2Cc3ccc(N(C)C=O)cc3[C@@]1(C)CCN2CC1CC1`, the Ki in assay [1] came to 200 nM; on Mu-type opioid receptor [2], 550 nM.

Consider `Nc1ccc2c3c1O[C@H]1C(=O)CC[C@@]4(O)[C@@H](C2)N(CC2CC2)CC[C@]314`, for which the Ki came to 5.8 nM in assay [1] and 5.6 nM at Mu-type opioid receptor [2].

With `CC(=O)Nc1ccc2c(c1)[C@@]1(C)CCN(CC3CC3)C(C2)[C@@H]1C`, the Ki in assay [1] stood at 130 nM; at Mu-type opioid receptor [2] it was 240 nM.

Turning to `C[C@H]1C2Cc3ccc(NC(=O)c4ccccc4)cc3[C@@]1(C)CCN2CC1CC1`, the inhibitory constant (Ki) in assay [1] came to 820 nM; at Mu-type opioid receptor [2] it was 570 nM.

Take `CC[C@@]12CCN(CC3CC3)C(C(=O)c3ccc(NC=O)cc31)[C@@H]2C`: the figures for the inhibition constant Ki (in assay [1]; on Mu-type opioid receptor [2]) were 1.2 nM and 6.1 nM, respectively.

`NC(=O)c1ccc2c3c1O[C@H]1C(=O)CC[C@@]4(O)[C@@H](C2)N(CC2CC2)CC[C@]314`: in assay [3], the affinity corresponds to a Ki of 110 nM.

As to `O=CNc1ccc2c3c1O[C@H]1C(=O)CC[C@@]4(O)[C@@H](C2)N(CC2CC2)CC[C@]314`, the inhibitory constant (Ki) in assay [1] was 4.2 nM; at Mu-type opioid receptor [2] it was 8.3 nM.

Consider `C[C@H]1C2Cc3ccc(NCc4ccccc4)cc3[C@@]1(C)CCN2CC1CC1`, for which the Ki at Mu-type opioid receptor [4] was roughly 1.3 nM.

For `C[C@H]1C2Cc3ccc(NC=O)cc3[C@@]1(C)CCN2CC1CC1`, the results for the inhibition constant (Ki) (in assay [1]; at Mu-type opioid receptor [2]) were 0.85 nM and 1.9 nM, respectively.

Compound `C[C@H]1[C@H]2Cc3ccc(Nc4ccccc4)cc3[C@@]1(C)CCN2CC1CC1` showed an inhibition constant Ki on Mu-type opioid receptor [4] of roughly 1.3 nM.

Take `C[C@H]1[C@H]2Cc3ccc(NC=O)cc3[C@]1(C)CCN2CC1CC1`: the Ki came out at 0.49 nM in assay [1] and 1.1 nM at Mu-type opioid receptor [2].

`C[C@H]1C2Cc3ccc(C(N)=O)cc3[C@@]1(C)CCN2CC1CC1` displayed a Ki in assay [3] of 8.3 nM.

For the compound `C[C@H]1[C@H]2Cc3ccc(O)cc3C1(C)CCN2CC1CC1` (single isomer, unassigned) [CYCLAZOCINE], in assay [3], the Ki was 1.1 nM.

In the case of `C[C@@H]1C2Cc3ccc(NC=O)cc3C1(C)CCN2CC1CC1` (single isomer, unassigned), the values for the Ki (in assay [1]; at Mu-type opioid receptor [2]) were 900 nM and 2300 nM, respectively.

In assay [3], `CC[C@@]12CCN(CC3CC3)C(C(=O)c3ccc(C(N)=O)cc31)[C@@H]2C` returned an inhibitory constant (Ki) of 9.8 nM.

These data come from ChEMBL document CHEMBL1136522, “Redefining the structure-activity relationships of 2,6-methano-3-benzazocines. Part 2: 8-formamidocyclazocine analogues” (Bioorg Med Chem Lett, 2003).
